Measurements published in patent US20230293451A1, “STIMULATION OF HAIR GROWTH” (The General Hospital Corporation, priority 2020, published 2023).
“Also recorded” adds a separate entry of the source. Blank lines part the entries; values can stand above or below the compound they belong to.

What was measured:
[1] = system: mouse skin with hair follicles arrested in telogen; assay: Topical administration of novel compounds to pre-sensitized mice (Example 2); type: in vivo, C57BL/6 mice; settings: pre-sensitized with 2% on chest; 2% topical on days 3, 5 and 7; images day 17
Source text: In order to compare the effect of SABDE, CF3-SABDE or CC1-SABDE (see FIG. 2a) on hair growth, 3 female C57BL/6 mice, 8 weeks old, were pre-sensitized with 2% of each compound on the chest 4 days before the first treatment and both flanks were shaved (Day 0). On days 3, 5, and 7, 2% of SABDE, CF3-SABDE or CC1-SABDE was topically administered to the shaved left flank of one mouse each using a cotton-tipped applicator. Images were taken on day 17 in order to visualize hair growth and inflammation (see FIGS. 2B and 2C).

[2] = system: mouse skin with hair follicles arrested in telogen; assay: Topical administration of SADBE and DPCP to shaved flank of mice (Example 1); type: in vivo, C57BL/6 mice; settings: for induction of anagen and hair growth: 2% topical, single administration day 0 to shaved left flank, images day 9 and day 16; for hair growth in a mammal without an autoimmune disease: mouse, in vivo
Source text: (§1) To measure the effect of SABDE and DPCP (see FIG. 1a) on hair growth, 6 female C57BL/6 mice, 8 weeks old, were shaved on both flanks 4 days before topical administration of the compounds (Day −4). During this period, the mice were visually monitored to confirm absence of hair growth and to confirm the entire shaved area is arrested in the telogen phase as expected from 8 weeks old mice. On the day of administration (day 0), 2% SABDE or 2% DCPC was topically administered to the shaved left flank of 3 mice each using a cotton-tipped applicator (see FIG. 1B). Images were taken on day 9 and day 16 in order to visualize hair growth and inflammation (see FIG. 1c). Skin pigmentation intensity was quantified by ImageJ. The anagen induction index is calculated as the change in skin pigmentation intensity (a marker of anagen) on the treated side relative to (i.e., as a percent of) the untreated side (see FIG. 1d).
(§2) The anagen induction index can be determined by any methods known in the art, including, for example, histological methods (e.g., H&E, other stains, or without stains) and/or other visual morphology methods. (e.g., methods to measure the biological parameters of hair growth. This value is then normalized to the specific experiment (individual mice) and shown as relative anagen induction by skin pigmentation intensity (a marker of anagen) on the treated side as a percent of the baseline untreated side. Analysis of the anagen (or other phases) can be performed by any method known in the art, including, e.g., a tissue biopsy and/or morphological analysis.
(§3) Inflammation can be measured by known methods such as histological grading, visual identification, and quantification of lesions. The number, size, and extent of the cutaneous lesions present (e.g., see blue * in FIG. 3a) can be visualized and quantified using any known method in the art, including, for example, histological methods (e.g., H&E, other stains, or without stains) and/or other visual morphology methods.

[3] = system: mouse skin with hair follicles arrested in telogen; assay: Comparison of 100 mM SADBE and CF3-SADBE topical treatment (Examples 3 and 5); type: in vivo, C57BL/6 mice; settings: 100 mM topical; for visible anagen: by day 10; for anagen induction / visible inflammation: by day 14; for hair growth on the treated flank: by day 17
Source text: as §1, §2, §3
The effects of a topical treatment dose of SADBE or CF3-SADBE were measured using the methods describe in Example 1. In FIG. 3, the topical treatment dose used was 50 uL of 100 mM SADBE or CF3-SADBE.
The effects on anagen induction and inflammation of topical treatment with CF3-SADBE at 100 mM were measured and visualized using the methods described in Example 1.

[4] = system: hair growth in shaved mice; assay: Hair growth in animal models after topical delivery of hapten derivatives (general statements); type: in vivo
[5] = system: resting telogen hair follicles; assay: Induction of anagen phase by CF3-SADBE, H&E staining of treated skin (Example 4); type: in vivo, mouse; settings: 100 uL of 100 mM on left flank; right flank untreated
Source text: as §1
The effects of a topical treatment dose of CF3-SADBE was measured and visualized using the methods described in Example 1. The gross appearance of the mouse treated with CF3-SADBE was imaged (see FIG. 4a). CF3-SADBE was administered on the left flank at a dose of 100 uL of 100 mM CF3-SADBE (see FIG. 4B). The right flank was left untreated (see FIG. 4C).

SMILES: O=c1c(OCCCCCl)c(OCCCCCl)c1=O [CC1-SABDE]
anagen and hair growth [1]: neither produced inflammation nor anagen and hair growth
inflammation [1]: neither produced inflammation nor anagen and hair growth

SMILES: CCCCOc1c(OCCCC)c(=O)c1=O [SADBE]
inflammation [1]: inflammation in the SADBE treated flank
induction of anagen and hair growth [2]: induction of anagen and hair growth
hair growth in a mammal without an autoimmune disease [2]: increased (e.g., promoted) hair growth
visible anagen [3]: does not; also recorded: did not induce visible anagen
anagen induction [3]: induces anagen
visible inflammation [3]: substantial inflammation; also recorded: more visible inflammation
hair growth on the treated flank [3]: Robust hair growth

SMILES: O=c1c(-c2ccccc2)c1-c1ccccc1 [DPCP, diphenylcyclopropenone]
induction of anagen and hair growth [2]: induction of anagen and hair growth
hair growth in a mammal without an autoimmune disease [2]: increased hair growth

visible inflammation [3]: much less visible inflammation
SMILES: O=c1c(OCCCC(F)(F)F)c(OCCCC(F)(F)F)c1=O [CF3-SADBE, squaric acid di(trifluromethyl)propyl ester]
efficacy as measured by time of anagen induction [4]: earlier induction of anagen
inflammation relative to known treatments [4]: less inflammation than known treatments; also recorded: somewhat diminished inflammation
hair growth promoting activity ([4]; animal models, after prior shaving): accelerated hair growth relative to known treatments
anagen and hair growth [1]: induce anagen and hair growth at least as efficiently as SADBE
inflammation [1]: less inflammation
visible anagen [3]: induced visible anagen
anagen induction [3]: induces anagen
hair growth on the treated flank [3]: Robust hair growth
hair follicle phase in treated skin (H&E staining) [5]: hair follicles in anagen
